Experimental data from PubChem BioAssay AID1963845 (Molecular Pharmacology Branch, DTP, NCI, 2024).

Tested on: 429239-143-T-J1-PDC complex spheroid viability
Assay: Anticancer human tumor 429239-143-T-J1-PDC patient-derived small cell lung carcinoma cell line growth inhibition [POLQ]
Conditions: for IC50: curve of first compound; for viability, T/C: stronger effect = lower value
Method in brief: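 Complex spheroid viability model combining PDC tumour cells with endothelial (HUVEC) and MSC stromal cells. Novobiocin, ART-558 or RP6685 were tested singly and in combination with standard and investigational anticancer drugs. Each was titrated in half-log steps from near clinical Cmax, or from 10 microM where Cmax was unknown.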

[1] = second compound 0.0316 µM, first compound 0.00316 µM
[2] = second compound 0.0316 µM, first compound 0.01 µM
[3] = second compound 0.0316 µM, first compound 0.0316 µM
[4] = second compound 0.0316 µM, first compound 0.1 µM
[5] = second compound 0.1 µM, first compound 0.00316 µM
[6] = second compound 0.1 µM, first compound 0.01 µM
[7] = second compound 0.1 µM, first compound 0.0316 µM
[8] = second compound 0.1 µM, first compound 0.1 µM
[9] = second compound 0.316 µM, first compound 0.00316 µM
[10] = second compound 0.316 µM, first compound 0.01 µM
[11] = second compound 0.316 µM, first compound 0.0316 µM
[12] = second compound 0.316 µM, first compound 0.1 µM
[13] = second compound 1 µM, first compound 0.00316 µM
[14] = second compound 1 µM, first compound 0.01 µM
[15] = second compound 1 µM, first compound 0.0316 µM
[16] = second compound 1 µM, first compound 0.1 µM
[17] = second compound 3.16 µM, first compound 0.00316 µM
[18] = second compound 3.16 µM, first compound 0.01 µM
[19] = second compound 3.16 µM, first compound 0.0316 µM
[20] = second compound 3.16 µM, first compound 0.1 µM
[21] = second compound 10 µM, first compound 0.00316 µM
[22] = second compound 10 µM, first compound 0.01 µM
[23] = second compound 10 µM, first compound 0.0316 µM
[24] = second compound 10 µM, first compound 0.1 µM
[25] = second compound 0.0316 µM, first compound 0.316 µM
[26] = second compound 0.0316 µM, first compound 1 µM
[27] = second compound 0.1 µM, first compound 0.316 µM
[28] = second compound 0.1 µM, first compound 1 µM
[29] = second compound 0.316 µM, first compound 0.316 µM
[30] = second compound 0.316 µM, first compound 1 µM
[31] = second compound 1 µM, first compound 0.316 µM
[32] = second compound 1 µM, first compound 1 µM
[33] = second compound 3.16 µM, first compound 0.316 µM
[34] = second compound 3.16 µM, first compound 1 µM
[35] = second compound 10 µM, first compound 0.316 µM
[36] = second compound 10 µM, first compound 1 µM
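Further: luminescence signal used as surrogate measure of viable cells; spheroids exposed to compounds for seven days before readout.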
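Wherever viability, T/C is given: 100% = DMSO vehicle control viability as luminescence relative to vehicle.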

## Cn1ncnc1[C@H]1c2n[nH]c(=O)c3cc(F)cc(c23)N[C@@H]1c1ccc(F)cc1 + Cc1cccc(N(C)C(=O)C2C(O)CCN2c2nc(C)cc(C(F)(F)F)c2C#N)c1
Second compound 0.0316 µM
  IC50: 19.8 nM
Second compound 0.1 µM
  IC50: 19 nM
Second compound 0.316 µM
  IC50: 24.6 nM
Second compound 1 µM
  IC50: 19.3 nM
Second compound 3.16 µM
  IC50: 27 nM
Second compound 10 µM
  IC50: 11.5 nM
Second compound 0.0316 µM, first compound 0.000316 µM
  viability, T/C: 107%
Second compound 0.0316 µM, first compound 0.001 µM
  viability, T/C: 107%
[1]
  viability, T/C: 88.4%
[2]
  viability, T/C: 62.4%
[3]
  viability, T/C: 42.7%
[4]
  viability, T/C: 29.6%
Second compound 0.1 µM, first compound 0.000316 µM
  viability, T/C: 87.6%
Second compound 0.1 µM, first compound 0.001 µM
  viability, T/C: 98.4%
[5]
  viability, T/C: 78.1%
[6]
  viability, T/C: 65.9%
[7]
  viability, T/C: 34.7%
[8]
  viability, T/C: 39.8%
Second compound 0.316 µM, first compound 0.000316 µM
  viability, T/C: 93.5%
Second compound 0.316 µM, first compound 0.001 µM
  viability, T/C: 86.2%
[9]
  viability, T/C: 73.3%
[10]
  viability, T/C: 65.7%
[11]
  viability, T/C: 44.7%
[12]
  viability, T/C: 29.2%
Second compound 1 µM, first compound 0.000316 µM
  viability, T/C: 97.1%
Second compound 1 µM, first compound 0.001 µM
  viability, T/C: 98.7%
[13]
  viability, T/C: 74.6%
[14]
  viability, T/C: 57.8%
[15]
  viability, T/C: 47.1%
[16]
  viability, T/C: 31.8%
Second compound 3.16 µM, first compound 0.000316 µM
  viability, T/C: 95.8%
Second compound 3.16 µM, first compound 0.001 µM
  viability, T/C: 83%
[17]
  viability, T/C: 84.4%
[18]
  viability, T/C: 60.5%
[19]
  viability, T/C: 49.1%
[20]
  viability, T/C: 30.2%
Second compound 10 µM, first compound 0.000316 µM
  viability, T/C: 91.8%
Second compound 10 µM, first compound 0.001 µM
  viability, T/C: 86.1%
[21]
  viability, T/C: 98.5%
[22]
  viability, T/C: 51.8%
[23]
  viability, T/C: 41.2%
[24]
  viability, T/C: 32%

## Nc1ccn(C2OC(CO)C(O)C2(F)F)c(=O)n1 (stereo unspecified) + Cc1cccc(N(C)C(=O)C2C(O)CCN2c2nc(C)cc(C(F)(F)F)c2C#N)c1
Second compound 0.0316 µM
  IC50: < 31.6 nM
Second compound 0.1 µM
  IC50: < 31.6 nM
Second compound 0.316 µM
  IC50: < 31.6 nM
Second compound 1 µM
  IC50: < 31.6 nM
Second compound 3.16 µM
  IC50: < 31.6 nM
Second compound 10 µM
  IC50: < 31.6 nM
[3]
  viability, T/C: 19.2%
[4]
  viability, T/C: 20.4%
[25]
  viability, T/C: 17.1%
[26]
  viability, T/C: 18%
Second compound 0.0316 µM, first compound 3.16 µM
  viability, T/C: 18.3%
Second compound 0.0316 µM, first compound 10 µM
  viability, T/C: 17.3%
[7]
  viability, T/C: 20.3%
[8]
  viability, T/C: 20%
[27]
  viability, T/C: 15.1%
[28]
  viability, T/C: 20.4%
Second compound 0.1 µM, first compound 3.16 µM
  viability, T/C: 18%
Second compound 0.1 µM, first compound 10 µM
  viability, T/C: 16.5%
[11]
  viability, T/C: 18.5%
[12]
  viability, T/C: 16.1%
[29]
  viability, T/C: 18.6%
[30]
  viability, T/C: 20.8%
Second compound 0.316 µM, first compound 3.16 µM
  viability, T/C: 19.3%
Second compound 0.316 µM, first compound 10 µM
  viability, T/C: 17.1%
[15]
  viability, T/C: 21.8%
[16]
  viability, T/C: 16.5%
[31]
  viability, T/C: 18.2%
[32]
  viability, T/C: 16.6%
Second compound 1 µM, first compound 3.16 µM
  viability, T/C: 17.2%
Second compound 1 µM, first compound 10 µM
  viability, T/C: 17.5%
[19]
  viability, T/C: 25.2%
[20]
  viability, T/C: 17.2%
[33]
  viability, T/C: 21.9%
[34]
  viability, T/C: 18.5%
Second compound 3.16 µM, first compound 3.16 µM
  viability, T/C: 15.5%
Second compound 3.16 µM, first compound 10 µM
  viability, T/C: 18.3%
[23]
  viability, T/C: 24.9%
[24]
  viability, T/C: 15.6%
[35]
  viability, T/C: 20.8%
[36]
  viability, T/C: 17.9%
Second compound 10 µM, first compound 3.16 µM
  viability, T/C: 20.2%
Second compound 10 µM, first compound 10 µM
  viability, T/C: 19.4%

## C=CCn1c(=O)c2cnc(Nc3ccc(N4CCN(C)CC4)cc3)nc2n1-c1cccc(C(C)(C)O)n1 + Cc1cccc(N(C)C(=O)C2C(O)CCN2c2nc(C)cc(C(F)(F)F)c2C#N)c1
Second compound 0.0316 µM
  IC50: 644 nM
Second compound 0.1 µM
  IC50: 637 nM
Second compound 0.316 µM
  IC50: 593 nM
Second compound 1 µM
  IC50: 587 nM
Second compound 3.16 µM
  IC50: 609 nM
Second compound 10 µM
  IC50: 642 nM
[1]
  viability, T/C: 106%
[2]
  viability, T/C: 110%
[3]
  viability, T/C: 103%
[4]
  viability, T/C: 95.1%
[25]
  viability, T/C: 103%
[26]
  viability, T/C: 17%
[5]
  viability, T/C: 105%
[6]
  viability, T/C: 105%
[7]
  viability, T/C: 97.5%
[8]
  viability, T/C: 102%
[27]
  viability, T/C: 103%
[28]
  viability, T/C: 16.1%
[9]
  viability, T/C: 109%
[10]
  viability, T/C: 106%
[11]
  viability, T/C: 106%
[12]
  viability, T/C: 116%
[29]
  viability, T/C: 91.1%
[30]
  viability, T/C: 16.1%
[13]
  viability, T/C: 107%
[14]
  viability, T/C: 100%
[15]
  viability, T/C: 103%
[16]
  viability, T/C: 111%
[31]
  viability, T/C: 89.6%
[32]
  viability, T/C: 16%
[17]
  viability, T/C: 108%
[18]
  viability, T/C: 102%
[19]
  viability, T/C: 97.7%
[20]
  viability, T/C: 111%
[33]
  viability, T/C: 93.3%
[34]
  viability, T/C: 16.7%
[21]
  viability, T/C: 118%
[22]
  viability, T/C: 113%
[23]
  viability, T/C: 113%
[24]
  viability, T/C: 100%
[35]
  viability, T/C: 104%
[36]
  viability, T/C: 16.6%
